# Measured values from US11319347B2, “Peptide compound and method for producing same, composition for screening use, and method for selecting peptide compound” (FUJIFILM Corporation, priority 2017, dated 2022).
# Starred links: 1 amine or outer side, 2 acyl side, 3 side chain; linkers in the order of their positions; H or OH if unused. Positions of bridges follow the written chain, without caps; N, C: chain ends. Non-standard residues stand in square brackets, D forms with d. Residues, ends and D or L forms follow the SMILES beside them. ξ: configuration not given here. 2Pal(6-thiazolin-2-yl-4R-CO) = O=C([C@H](Cc1cccc(C2=N[C@H](C(=O)[*:3])CS2)n1)N[*:1])[*:2]; Ile(3ξ) = CCC(C)[C@H](N)C(=O)O
# Target: Mcl-1
# Assay: Binding of synthetic peptide to target protein by surface plasmon resonance (SPR, Biacore T200)
# Conditions: 25° C., immobilized Mcl-1, Table 51, read-out: Binding evaluation result (KD)
# Protocol: Preparation of Target Protein
# A plasmid construct was prepared in which a gene containing the amino acid 1-172 portion of MCL-1 was introduced into plasmid pET28a, and a His6 tag, MBP, and a TEV protease recognition sequence were attached to the N terminal side thereof. This plasmid was transformed into E. coli strain BL21 (DE3) RIPL which was then cultured at 30° C. In a case where the O.D. reached 0.8, IPTG […] was added to induce large-scale expression, followed by culturing at 16° C. overnight. The recovered bacterial cells were suspended in Lysis Buffer A (25 mmol/L Tris (pH 7.5), 150 mmol/L NaCl), and then disrupted by sonication. This was followed by centrifugation at 15 krpm for 15 minutes. The supernatant after centrifugation was purified using a Ni-NTA resin (manufactured by QIAGEN GmbH). The sample adsorbed to the Ni-NTA resin was washed with Lysis Buffer A containing 15 mmol/L imidazole and then eluted with Lysis Buffer A containing 200 mmol/L imidazole. The sample was stored at −80° C. after substitution with Lysis buffer by dialysis.
# Evaluation of Binding of Synthetic Peptide to Target Protein Using Surface Plasmon Resonance (SPR)
# An SPR experiment for analyzing the interaction of a synthetic peptide with Mel-1 was carried out at 25° C. using Biacore T200 (manufactured by GE Healthcare Inc.). The synthetic peptide was added to the immobilized protein, and the interaction therebetween was evaluated.
# A buffer obtained by adding dimethylformamide (DMF) or dimethylsulfoxide (DMSO) to a final concentration of 1 vol % to HBS-EP+ (manufactured by GE Healthcare Inc.) was used as a running buffer. Mcl-1 was immobilized on a Biacore Sensor Chip Series S Sensor Chip CM5 (manufactured by GE Healthcare Inc.) using an Amine Coupling Kit (manufactured by GE Healthcare Inc.). In order to measure the dissociation constant (KD), each synthetic peptide was added at multiple concentrations to obtain a sensorgram of binding to immobilized Mel-1.
# The analysis of the obtained sensorgram was carried out using T200 evaluation software (manufactured by GE Healthcare Inc.). Solvent correction to DMF or DMSO was carried out, and then the KD was determined by equilibrium value analysis using a sensorgram obtained by subtracting the sensorgram to a flow cell in which Mcl-1 is not immobilized.
# One having a KD of less than 50 μmol/L is denoted as A, and one having a KD of 50 μmol/L or more is denoted as B.
# Binding of the synthetic peptide to the target protein was evaluated in the same manner as described above.
row,Kd [µM],SMILES
1,≥ 50,CC(C)C[C@@H]1NC(=O)[C@H](Cc2ccccc2)NC(=O)[C@H](C)NC(=O)[C@@H]2CCCN2C(=O)[C@H](Cc2c[nH]c3ccccc23)NC(=O)[C@H](CC(C)C)NC(=O)[C@@H](CS)NC(=O)[C@H](C)NC(=O)C(Cc2c[nH]c3ccccc23)NC(=O)[C@H](CO)NC(=O)C(CCCNC(=N)N)NC(=O)[C@@H]2CSC(=N2)c2cccc(n2)C[C@H](C(N)=O)NC(=O)[C@H](Cc2ccc(O)cc2)NC(=O)[C@H](Cc2c[nH]c3ccccc23)NC1=O (stereo partly drawn) [Cyclic peptide a-5-1]
2,< 50,CC(C)C[C@@H]1NC(=O)CNC(=O)[C@@H]2CCCN2C(=O)[C@H](CCC(=O)O)NC(=O)[C@H](Cc2ccccc2)NC(=O)[C@H](CO)NC(=O)[C@@H]2CSC(=N2)c2cccc(n2)C[C@@H](C(N)=O)NC(=O)[C@H](CC(C)C)NC(=O)[C@H](C(C)C)NC(=O)[C@H](CCCNC(=N)N)NC(=O)[C@H](Cc2ccccc2)NC(=O)[C@H](CC(C)C)NC(=O)[C@H](Cc2c[nH]c3ccccc23)NC(=O)[C@H](Cc2c[nH]c3ccccc23)NC1=O [Cyclic peptide a-5-5] (SFEPGLWWLFRVL[2Pal(6-thiazolin-2-yl-4R-CO)]-NH2; lactam N-14)
3,≥ 50,CC(C)C[C@@H]1NC(=O)[C@H](C)NC(=O)[C@@H](Cc2ccccc2)NC(=O)[C@@H]2CSC(=N2)c2cccc(n2)C[C@@H](C(N)=O)NC(=O)[C@H](Cc2ccccc2)NC(=O)[C@H](C)NC(=O)[C@H](CC(C)C)NC(=O)[C@@H]2CCCN2C(=O)[C@@H](CC(C)C)NC(=O)[C@@H](Cc2ccccc2)NC(=O)[C@H](CCC(N)=O)NC(=O)[C@@H]2CCCN2C(=O)[C@@H](Cc2c[nH]c3ccccc23)NC(=O)[C@H](CC(C)C)NC1=O [Cyclic peptide a-5-3] ([dF]ALL[dW]PQ[dF][dL]PLAF[2Pal(6-thiazolin-2-yl-4R-CO)]-NH2; lactam N-14)

# More lines, now with the values behind:
row,SMILES,Kd [µM]
1,CC(C)C[C@@H]1NC(=O)[C@H](Cc2c[nH]c3ccccc23)NC(=O)[C@@H]2CCCN2C(=O)[C@H](Cc2c[nH]c3ccccc23)NC(=O)[C@H](CC(C)C)NC(=O)[C@H](C(C)C)NC(=O)[C@H](CS)NC(=O)[C@H](Cc2c[nH]c3ccccc23)NC(=O)[C@H](CO)NC(=O)[C@@H]2CSC(=N2)c2cccc(n2)C[C@@H](C(N)=O)NC(=O)CNC(=O)[C@H](Cc2c[nH]c3ccccc23)NC(=O)[C@H](Cc2ccccc2)NC(=O)[C@H](C(C)C)NC1=O [Cyclic peptide a-5-6] (SWCVLWPWLVFWG[2Pal(6-thiazolin-2-yl-4R-CO)]-NH2; lactam N-14),≥ 50
2,CC(C)C[C@@H]1NC(=O)[C@H](C(C)C)NC(=O)[C@H](CO)NC(=O)[C@H](Cc2c[nH]c3ccccc23)NC(=O)[C@@H]2CSC(=N2)c2cccc(n2)C[C@@H](C(N)=O)NC(=O)[C@H](CO)NC(=O)[C@H](C(C)C)NC(=O)[C@H](CO)NC(=O)[C@@H]2CCCN2C(=O)[C@H](C(C)C)NC(=O)[C@H](Cc2ccccc2)NC(=O)[C@H](Cc2c[nH]c3ccccc23)NC(=O)[C@@H]2CCCN2C(=O)[C@H](Cc2c[nH]c3ccccc23)NC1=O [Cyclic peptide a-5-4] (WSVLWPWFVPSVS[2Pal(6-thiazolin-2-yl-4R-CO)]-NH2; lactam N-14),< 50
3,CC(C)C[C@@H]1NC(=O)[C@H](C)NC(=O)[C@H](Cc2ccccc2)NC(=O)[C@H](C)NC(=O)[C@@H]2CCCN2C(=O)[C@H](Cc2c[nH]c3ccccc23)NC(=O)[C@H](CC(C)C)NC(=O)[C@H](CS)NC(=O)[C@H](C)NC(=O)[C@H](Cc2c[nH]c3ccccc23)NC(=O)[C@@H]2CSC(=N2)c2cccc(n2)C[C@@H](C(N)=O)NC(=O)[C@H](CC(C)C)NC(=O)[C@H](Cc2c[nH]c3ccccc23)NC(=O)[C@H](CO)NC1=O [Cyclic peptide a-5-8] (WACLWPAFALSWL[2Pal(6-thiazolin-2-yl-4R-CO)]-NH2; lactam N-14),≥ 50
4,CC(C)C[C@@H]1NC(=O)[C@H](C(C)C)NC(=O)[C@H](CO)NC(=O)[C@H](Cc2ccccc2)NC(=O)[C@H](C)NC(=O)[C@H](Cc2c[nH]c3ccccc23)NC(=O)[C@@H]2CSC(=N2)c2cccc(n2)C[C@H](C(N)=O)NC(=O)[C@H](Cc2c[nH]c3ccccc23)NC(=O)[C@H](C(C)C)NC(=O)[C@@H]2CCCN2C(=O)[C@H](Cc2ccccc2)NC(=O)[C@H](Cc2c[nH]c3ccccc23)NC(=O)[C@@H]2CCCN2C(=O)[C@H](Cc2c[nH]c3ccccc23)NC1=O [Cyclic peptide a-5-2],≥ 50
5,CCC(C)[C@@H]1NC(=O)[C@@H]2CCCN2C(=O)[C@H](Cc2c[nH]c3ccccc23)NC(=O)[C@H](CC(C)C)NC(=O)[C@H](CC(C)C)NC(=O)[C@H](C(C)C)NC(=O)[C@H](Cc2c[nH]c3ccccc23)NC(=O)[C@@H]2CCCN2C(=O)[C@@H]2CSC(=N2)c2cccc(n2)C[C@@H](C(N)=O)NC(=O)[C@H](CC(C)C)NC(=O)[C@H](CO)NC(=O)[C@@H]2CCCN2C(=O)[C@H](C(C)C)NC(=O)[C@H](CC(C)C)NC1=O (stereo partly drawn) [Cyclic peptide a-5-7] (PWVLLWP[Ile(3ξ)]LVPSL[2Pal(6-thiazolin-2-yl-4R-CO)]-NH2; lactam N-14),≥ 50

# Same assay, conditions: immobilized Mcl-1, Table 53 (peptides from mRNA display), read-out: Binding evaluation result (KD)
row,Kd [µM],SMILES
1,≥ 50,CC[C@H](C)[C@@H]1NC(=O)[C@H](CC(=O)O)NC(=O)[C@@H]2CSC(=N2)c2cc(cs2)CC(C(N)=O)NC(=O)[C@H](CCCNC(=N)N)NC(=O)[C@H](CC(=O)O)NC(=O)CNC(=O)[C@H](CC(=O)O)NC(=O)[C@H](CCCCN)NC(=O)[C@H](Cc2ccc(O)cc2)NC(=O)[C@H](CC(=O)O)NC(=O)[C@H](Cc2ccc(O)cc2)NC(=O)[C@H](C(C)C)NC(=O)CNC(=O)[C@H](C(C)C)NC1=O (stereo partly drawn) [a-6-3]
2,< 50,CC(C)C[C@@H]1NC(=O)[C@@H]2CCCN2C(=O)[C@H](Cc2c[nH]c3ccccc23)NC(=O)[C@H](Cc2ccccc2)NC(=O)[C@H]([C@H](C)O)NC(=O)[C@@H]2CCCN2C(=O)[C@H](CC(=O)O)NC(=O)[C@H](CS)NC(=O)[C@H](Cc2ccc(O)cc2)NC(=O)[C@H](CCC(=O)O)NC(=O)[C@@H]2CSC(=N2)c2cc(cs2)C[C@@H](C(N)=O)NC(=O)[C@H](CCCNC(=N)N)NC(=O)[C@H](CCCNC(=N)N)NC(=O)[C@H](Cc2ccccc2)NC1=O [a-6-1]
3,< 50,CC[C@H](C)[C@@H]1NC(=O)[C@H](CO)NC(=O)[C@H](CO)NC(=O)[C@H](CC(C)C)NC(=O)[C@H]([C@@H](C)O)NC(=O)[C@H]([C@@H](C)O)NC(=O)[C@@H]2CSC(=N2)c2cc(cs2)C[C@@H](C(N)=O)NC(=O)[C@H](CCCNC(=N)N)NC(=O)[C@H](CCCNC(=N)N)NC(=O)[C@H](CC(=O)O)NC(=O)[C@H](C(C)C)NC(=O)[C@H](CCC(N)=O)NC(=O)[C@H](CC(=O)O)NC(=O)CNC1=O [a-6-5]
4,< 50,CC[C@H](C)[C@@H]1NC(=O)[C@H](CO)NC(=O)[C@H](CCCNC(=N)N)NC(=O)[C@H](CC(C)C)NC(=O)[C@H]([C@@H](C)O)NC(=O)[C@H](CO)NC(=O)[C@H](C)NC(=O)[C@H]([C@@H](C)O)NC(=O)[C@H](CCC(=O)O)NC(=O)[C@H](CCC(=O)O)NC(=O)[C@@H]2CSC(=N2)c2cc(cs2)C[C@@H](C(N)=O)NC(=O)[C@H](CO)NC(=O)[C@H](CC(=O)O)NC(=O)CNC1=O [a-6-4]
5,≥ 50,CC(C)C[C@@H]1NC(=O)[C@H](CC(=O)O)NC(=O)[C@H](CCC(N)=O)NC(=O)[C@H](CC(=O)O)NC(=O)[C@H](CCCCN)NC(=O)[C@H](Cc2ccc(O)cc2)NC(=O)[C@H](CC(=O)O)NC(=O)[C@H](Cc2ccc(O)cc2)NC(=O)[C@H](CCC(=O)O)NC(=O)[C@H](Cc2ccccc2)NC(=O)[C@H](C)NC(=O)CNC(=O)[C@H](C)NC(=O)[C@@H]2CSC(=N2)c2cc(cs2)C[C@H](C(N)=O)NC1=O [a-6-2]

# Second part, the molecule before the results:
row,SMILES,Kd [µM]
1,CC[C@H](C)[C@@H]1NC(=O)[C@H](CCC(N)=O)NC(=O)[C@H](CCCNC(=N)N)NC(=O)[C@H](CC(C)C)NC(=O)CNC(=O)[C@H](CC(=O)O)NC(=O)[C@H](C(C)C)NC(=O)[C@H](C(C)C)NC(=O)[C@H](CC(N)=O)NC(=O)[C@@H]2CCCN2C(=O)[C@@H]2CSC(=N2)c2cc(cs2)CC(C(N)=O)NC(=O)[C@H]([C@@H](C)O)NC(=O)[C@H](CC(=O)O)NC(=O)CNC1=O (stereo partly drawn) [a-6-6],< 50
2,CC(C)C[C@H](NC(=O)[C@H](CC(=O)O)NC(=O)[C@H](CCCCN)NC(=O)[C@@H](NC(=O)[C@H](C)NC(=O)[C@H](C)NC(=O)[C@H]1Cc2csc(c2)C2=N[C@@H](CS2)C(=O)N[C@@H](CC(=O)O)C(=O)N[C@@H](CO)C(=O)N[C@@H](Cc2ccc(O)cc2)C(=O)N1)C(C)C)C(=O)N[C@@H](CCC(=O)O)C(=O)N[C@@H](CC(N)=O)C(=O)N[C@@H](C)C(=O)N[C@@H](Cc1csc(C#N)c1)C(N)=O [a-6-7],< 50
